From ChEMBL document CHEMBL3612057, “Discovery of indolizines containing triazine moiety as new leads for the development of antitumoral agents targeting mitotic events” (2015)
Activity calls are given as the source filed them. No cut-off for these calls is given here.

Tests used:
[1] = tested on: CCRF-CEM; assay: Cytotoxicity against human CCRF-CEM cells assessed as growth inhibition at 10 uM after 24 hrs by SRB assay; format: functional; conditions: for inhibition of growth at 10 µM: read-out: GI
[2] = tested on: HL-60(TB); assay: Cytotoxicity against human HL-60(TB) cells assessed as growth inhibition at 10 uM after 24 hrs by SRB assay; format: functional
[3] = tested on: K562; assay: Cytotoxicity against human K562 cells assessed as growth inhibition at 10 uM after 24 hrs by SRB assay; format: functional; conditions: for inhibition of growth at 10 µM: K562, 24 h, read-out: GI
[4] = tested on: RPMI-8226; assay: Cytotoxicity against human RPMI8226 cells assessed as growth inhibition at 10 uM after 24 hrs by SRB assay; format: functional; conditions: for inhibition of growth at 10 µM: RPMI-8226, 24 h, read-out: GI
[5] = tested on: SR; assay: Cytotoxicity against human SR cells assessed as growth inhibition at 10 uM after 24 hrs by SRB assay; format: functional; conditions: read-out: GI
[6] = tested on: A549; assay: Cytotoxicity against human A549 cells assessed as growth inhibition at 10 uM after 24 hrs by SRB assay; format: functional; conditions: A549, 24 h, read-out: GI
[7] = tested on: HOP-62; assay: Cytotoxicity against human HOP62 cells assessed as growth inhibition at 10 uM after 24 hrs by SRB assay; format: functional; conditions: for inhibition of growth at 10 µM: HOP-62, 24 h, read-out: GI
[8] = tested on: HOP-92; assay: Cytotoxicity against human HOP92 cells assessed as growth inhibition at 10 uM after 24 hrs by SRB assay; format: functional
[9] = tested on: NCI-H226; assay: Cytotoxicity against human NCI-H226 cells assessed as growth inhibition at 10 uM after 24 hrs by SRB assay; format: functional
[10] = tested on: NCI-H460; assay: Cytotoxicity against human NCI-H460 cells assessed as growth inhibition at 10 uM after 24 hrs by SRB assay; format: functional
[11] = tested on: NCI-H522; assay: Cytotoxicity against human NCI-H522 cells assessed as growth inhibition at 10 uM after 24 hrs by SRB assay; format: functional; conditions: NCI-H522, 24 h, read-out: GI
[12] = tested on: HCT-116; assay: Cytotoxicity against human HCT116 cells assessed as growth inhibition at 10 uM after 24 hrs by SRB assay; format: functional; conditions: for inhibition of growth at 10 µM: HCT-116, 24 h, read-out: GI
[13] = tested on: SF-295; assay: Cytotoxicity against human SF295 cells assessed as growth inhibition at 10 uM after 24 hrs by SRB assay; format: functional; conditions: SF-295, 24 h, read-out: GI
[14] = tested on: SF-539; assay: Cytotoxicity against human SF539 cells assessed as growth inhibition at 10 uM after 24 hrs by SRB assay; format: functional; conditions: for inhibition of growth at 10 µM: SF-539, 24 h, read-out: GI
[15] = tested on: SNB-75; assay: Cytotoxicity against human SNB75 cells assessed as growth inhibition at 10 uM after 24 hrs by SRB assay; format: functional; conditions: SNB-75, 24 h, read-out: GI
[16] = tested on: U-251; assay: Cytotoxicity against human U251 cells assessed as growth inhibition at 10 uM after 24 hrs by SRB assay; format: functional
[17] = tested on: Malme-3M; assay: Cytotoxicity against human MALME-3M cells assessed as growth inhibition at 10 uM after 24 hrs by SRB assay; format: functional
[18] = tested on: MDA-MB-435; assay: Cytotoxicity against human MDA-MB-435 cells assessed as growth inhibition at 10 uM after 24 hrs by SRB assay; format: functional
[19] = tested on: SK-MEL-28; assay: Cytotoxicity against human SK-MEL-28 cells assessed as growth inhibition at 10 uM after 24 hrs by SRB assay; format: functional
[20] = tested on: SK-MEL-5; assay: Cytotoxicity against human SK-MEL-5 cells assessed as growth inhibition at 10 uM after 24 hrs by SRB assay; format: functional; conditions: for inhibition of growth at 10 µM: SK-MEL-5, 24 h, read-out: GI
[21] = tested on: UACC-257; assay: Cytotoxicity against human UACC257 cells assessed as growth inhibition at 10 uM after 24 hrs by SRB assay; format: functional
[22] = tested on: UACC-62; assay: Cytotoxicity against human UACC62 cells assessed as growth inhibition at 10 uM after 24 hrs by SRB assay; format: functional; conditions: UACC-62, 24 h, read-out: GI
[23] = tested on: OVCAR-3; assay: Cytotoxicity against human OVCAR3 cells assessed as growth inhibition at 10 uM after 24 hrs by SRB assay; format: functional; conditions: for inhibition of growth at 10 µM: OVCAR-3, 24 h, read-out: GI
[24] = tested on: OVCAR-4; assay: Cytotoxicity against human OVCAR4 cells assessed as growth inhibition at 10 uM after 24 hrs by SRB assay; format: functional
[25] = tested on: OVCAR-8; assay: Cytotoxicity against human OVCAR8 cells assessed as growth inhibition at 10 uM after 24 hrs by SRB assay; format: functional; conditions: OVCAR-8, 24 h, read-out: GI
[26] = tested on: NCI/ADR-RES; assay: Cytotoxicity against human NCI/ADR-RES cells assessed as growth inhibition at 10 uM after 24 hrs by SRB assay; format: functional; conditions: read-out: GI
[27] = tested on: SK-OV-3; assay: Cytotoxicity against human SKOV3 cells assessed as growth inhibition at 10 uM after 24 hrs by SRB assay; format: functional; conditions: for inhibition of growth at 10 µM: SK-OV-3, 24 h, read-out: GI
[28] = tested on: 786-0; assay: Cytotoxicity against human 786-0 cells assessed as growth inhibition at 10 uM after 24 hrs by SRB assay; format: functional
[29] = tested on: ACHN; assay: Cytotoxicity against human ACHN cells assessed as growth inhibition at 10 uM after 24 hrs by SRB assay; format: functional; conditions: read-out: GI
[30] = tested on: CAKI-1; assay: Cytotoxicity against human CAKI-1 cells assessed as growth inhibition at 10 uM after 24 hrs by SRB assay; format: functional; conditions: CAKI-1, 24 h, read-out: GI
[31] = tested on: RXF 393; assay: Cytotoxicity against human RXF393 cells assessed as growth inhibition at 10 uM after 24 hrs by SRB assay; format: functional; conditions: RXF 393, 24 h, read-out: GI
[32] = tested on: TK-10; assay: Cytotoxicity against human TK10 cells assessed as growth inhibition at 10 uM after 24 hrs by SRB assay; format: functional
[33] = tested on: PC-3; assay: Cytotoxicity against human PC3 cells assessed as growth inhibition at 10 uM after 24 hrs by SRB assay; format: functional; conditions: PC-3, 24 h, read-out: GI
[34] = tested on: MCF7; assay: Cytotoxicity against human MCF7 cells assessed as growth inhibition at 10 uM after 24 hrs by SRB assay; format: functional; conditions: MCF7, 24 h, read-out: GI
[35] = tested on: MDA-MB-231; assay: Cytotoxicity against human MDA-MB-231 cells assessed as growth inhibition at 10 uM after 24 hrs by SRB assay; format: functional; conditions: MDA-MB-231, 24 h, read-out: GI
[36] = Cytotoxicity against human Hs578T cells assessed as growth inhibition at 10 uM after 24 hrs by SRB assay; format: functional; conditions: Hs-578T, read-out: GI
[37] = tested on: T47D; assay: Cytotoxicity against human T47D cells assessed as growth inhibition at 10 uM after 24 hrs by SRB assay; format: functional; conditions: for inhibition of growth at 10 µM: read-out: GI
[38] = species on record: Ovis aries; assay: Inhibition of sheep tubulin polymerization at 100 uM by fluorescence assay

SMILES	growth inhibition (GI) [2]	inhibition of growth at 10 µM [5] [%]	inhibition of growth at 10 µM [6] [%]	inhibition of growth at 10 µM [7] [%]	growth inhibition (GI) [8]	inhibition of growth at 10 µM [11] [%]	inhibition of growth at 10 µM [13] [%]	inhibition of growth at 10 µM [15] [%]	growth inhibition (GI) [21]	inhibition of growth at 10 µM [22] [%]	inhibition of growth at 10 µM [25] [%]	inhibition of growth at 10 µM [26] [%]	inhibition of growth at 10 µM [29] [%]	inhibition of growth at 10 µM [30] [%]	inhibition of growth at 10 µM [31] [%]	inhibition of growth at 10 µM [33] [%]	inhibition of growth at 10 µM [34] [%]	inhibition of growth at 10 µM [35] [%]	inhibition of growth at 10 µM [36] [%]	inhibition [38]	further results
COc1ccc(C(=O)c2cc(-c3nc(OC)nc(OC)n3)c3ccccn23)cc1	inactive	19	21	97	inactive	60	47	-17	inactive	11	16	19	54	26	59	18	13	50	25	inactive	growth inhibition (GI) [1]: inactive; growth inhibition (GI) [3]: inactive; growth inhibition (GI) [4]: inactive; inhibition of growth at 10 µM ([9]; NCI-H226, 24 h, read-out: GI): 12%; growth inhibition (GI) [10]: inactive; inhibition of growth at 10 µM [12]: 36%; inhibition of growth at 10 µM [14]: 32%; inhibition of growth at 10 µM ([16]; U-251, 24 h, read-out: GI): 56%; growth inhibition (GI) [17]: inactive; growth inhibition (GI) [18]: inactive; growth inhibition (GI) [19]: inactive; growth inhibition (GI) [20]: inactive; growth inhibition (GI) [23]: inactive; growth inhibition (GI) [24]: inactive; inhibition of growth at 10 µM [27]: 54%; inhibition of growth at 10 µM ([28]; 786-0, 24 h, read-out: GI): 27%; inhibition of growth at 10 µM ([32]; TK-10, 24 h, read-out: GI): 18%; inhibition of growth at 10 µM [37]: 17%
COc1nc(OC)nc(-c2cc(C(=O)c3cc(OC)c(OC)c(OC)c3)n3c(C)cccc23)n1		67	17	34	inactive	56	15	67	inactive	30	12	15	30	11	31	19	55	17	17	inactive	inhibition of growth at 10 µM [1]: 10%; inhibition of growth at 10 µM ([2]; HL-60, 24 h, read-out: GI): 33%; inhibition of growth at 10 µM [3]: 45%; inhibition of growth at 10 µM [4]: 10%; growth inhibition (GI) [9]: inactive; growth inhibition (GI) [10]: inactive; inhibition of growth at 10 µM [12]: 15%; inhibition of growth at 10 µM [14]: 14%; growth inhibition (GI) [16]: inactive; inhibition of growth at 10 µM ([17]; read-out: GI): 37%; inhibition of growth at 10 µM ([18]; MDA-MB-435, 24 h, read-out: GI): 86%; inhibition of growth at 10 µM ([19]; SK-MEL-28, 24 h, read-out: GI): 14%; inhibition of growth at 10 µM [20]: 41%; inhibition of growth at 10 µM [23]: 19%; growth inhibition (GI) [24]: inactive; inhibition of growth at 10 µM [27]: 18%; growth inhibition (GI) [28]: inactive; growth inhibition (GI) [32]: inactive; growth inhibition (GI) [37]: inactive
COc1nc(OC)nc(-c2cc(C(=O)c3cc(OC)c(OC)c(OC)c3)n3c(-c4ccccc4)cccc23)n1	inactive	29	28		inactive	11	40	23	inactive	39	41	38	30	43	15	37	22	23	14	inactive	inhibition of growth at 10 µM [1]: 62%; inhibition of growth at 10 µM [3]: 29%; inhibition of growth at 10 µM [4]: 52%; growth inhibition (GI) [7]: inactive; growth inhibition (GI) [9]: inactive; inhibition of growth at 10 µM ([10]; NCI-H460, 24 h, read-out: GI): 14%; growth inhibition (GI) [12]: inactive; growth inhibition (GI) [14]: inactive; growth inhibition (GI) [16]: inactive; growth inhibition (GI) [17]: inactive; growth inhibition (GI) [18]: inactive; growth inhibition (GI) [19]: inactive; inhibition of growth at 10 µM [20]: 67%; inhibition of growth at 10 µM [23]: 28%; inhibition of growth at 10 µM ([24]; OVCAR-4, 24 h, read-out: GI): 18%; growth inhibition (GI) [27]: inactive; growth inhibition (GI) [28]: inactive; growth inhibition (GI) [32]: inactive; inhibition of growth at 10 µM [37]: 32%
